Data taken from patent publication US20120130129A1, “Efficient Method for Preparing Functionalized Benzosuberenes” (BAYLOR UNIVERSITY, priority 2010, published 2012).
Read-outs that look alike come from different tables or passages of the source.

How the values were obtained:
Bovine brain tubulin = test: Inhibition of tubulin polymerization (turbidimetric tubulin assembly); type: biochemical; conditions: for IC50: 10 μM tubulin, 20 min incubation, 30° C.; for Inhibition of tubulin assembly (in words): comparable to CA1, CA4
Procedure: Bovine brain tubulin was purified using methods previously described by Hamel (Cell Biochem. Biophys. 38:1-21 (2003)). The effect of compounds on tubulin assembly in vitro was determined by using a series of concentrations that were pre-incubated with 10 μM tubulin (1.0 mg/mL) in glutamate buffer at 30° C., followed by cooling to 0° C. After GTP was added, the samples were mixed and transferred to cuvettes at 0° C. in a recording spectrophotometer and warmed to 30° C. to initiate polymerization. Tubulin assembly was observed turbidimetrically at 350 nm. Tubulin disassembly was confirmed by cooling to 0° C. The calculated compound concentration that inhibited tubulin assembly by 50% after a 20 min incubation was defined as the IC50 value.

DU-145 (prostate) [1] = test: Sulforhodamine B (SRB) growth inhibition assay; conditions: for GI50: Homo sapiens, DU-145, read-out: Cytotoxicity (GI50) DU-145
From the text: (§1) Cancer cell lines were obtained from ATCC (DU-145 (prostate), SK-OV-3 (ovarian), and NCI-H460 (lung)) and maintained according to recommended conditions. Media was enriched with the recommended concentration of fetal bovine serum, as well as gentamicin and amphotericin B. The National Cancer Institute's standard SRB assay assessed cancer cell line growth inhibition, as previously described as the GI50, or the drug concentrations calculated to cause a 50% reduction in net protein increase relative to untreated cells (Vichai and Kirtikara, Nat. Protocols 1:1112-1116 (2006); Monks, et al., J. Natl. Cancer Inst. 83″757-766 (1991); Sites, et al., J. Nat. Prod. 71:313-320 (2008)). Results reported are averages of at least three separate experiments, each of which was carried out in triplicate.

NCI-H460 (lung) [2] = test: Sulforhodamine B (SRB) growth inhibition assay; conditions: for GI50: Homo sapiens, NCI-H460, read-out: Cytotoxicity (GI50) NCI-H460
From the text: as §1

SK-OV-3 (ovarian) [3] = test: Sulforhodamine B (SRB) growth inhibition assay; conditions: Homo sapiens
From the text: as §1

human cancer cell lines [4] = test: Cytotoxicity against human cancer cell lines (SRB assay, whole panel); type: cell-based; conditions: each cell line of Table 2
From the text: as §1

SK-OV-3 (ovarian) [5] = tested on: SK-OV-3 (ovarian)
From the text: as §1

DU-145 (prostate) [6] = tested on: DU-145 (prostate)
From the text: as §1

NCI-H460 (lung) [7] = tested on: NCI-H460 (lung)
From the text: as §1

human cancer cell lines [8] = conditions: previous studies, U.S. Pat. No. 7,429,681; cited from earlier work
[9] = SK-OV-3, read-out: Cytotoxicity (GI50) SK-OV-3

Compound `COc1ccc(/C=C\c2cc(OC)c(OC)c(OC)c2)c(O)c1O` [CA1, Combretastatin A-1, reference compound] has an IC50 (Bovine brain tubulin) of 1900 nM.
`COc1cc(C2=CCCCc3c2ccc(OC)c3[N+](=O)[O-])cc(OC)c1OC` [Compound 5, 1-Nitro-2-Methoxy-5-(3′,4′,5′-trimethoxyphenyl)-6,7,8,9-tetrahydro-5H-cyclobenzohepta-6-ene] gave a GI50 (DU-145 (prostate) [1]) of 211 nM, a GI50 (NCI-H460 (lung) [2]) of 666 nM and an IC50 (Bovine brain tubulin) of 2500 nM. The “Inhibition of tubulin assembly (in words)” value (shortened to “Inhibition”) (Bovine brain tubulin) was “potent inhibitors of tubulin assembly”, the GI50 (SK-OV-3 (ovarian) [3]; [9]) was 152 nM and the “Cytotoxicity compared with comparison compounds (in words)” value (human cancer cell lines [4]) was “significantly less cytotoxic than any of the comparison compounds”.
In the case of `COc1ccc2c(c1N)CCCC=C2c1cc(OC)c(OC)c(OC)c1` [Compound 6, 2-Methoxy-5-(3′,4′,5′-trimethoxyphenyl)-6,7,8,9-tetrahydro-5H-cyclobenzohepta-6-ene-1-amine], the GI50 (DU-145 (prostate) [1]) is reported as 1.11 nM, the “Cytotoxicity (in words)” value (DU-145 (prostate) [1]; prostate cell line) is reported as “strongly cytotoxic” and the GI50 (NCI-H460 (lung) [2]) is reported as 4.69 nM. The “Cytotoxicity (in words)” value (NCI-H460 (lung) [2]; non-small cell lung cell line) was “strongly cytotoxic”, the IC50 (Bovine brain tubulin) was 1200 nM and the “Inhibition” value (Bovine brain tubulin) was “potent inhibitors of tubulin assembly”. The GI50 (SK-OV-3 (ovarian) [3]; [9]) was 0.0329 nM, the GI50 (SK-OV-3 (ovarian) [3]; SK-OV-3, read-out: GI50 against ovarian cancer) was 0.0329 nM and the “Cytotoxicity compared with comparison compounds (in words)” value (human cancer cell lines [4]) was “more active against each cell line than the natural products CA4 and CA1”.
Compound `COc1cc2c(c(O)c1O)CCCC=C2c1cc(OC)c(OC)c(OC)c1` [Compound 13, 3-Methoxy-5-(3′,4′,5′-trimethoxyphenyl)-6,7,8,9-tetrahydro-5H-cyclobenzohepta-6-ene-1,2-diol] has a GI50 (SK-OV-3 (ovarian) [5]) of 22700 nM, a GI50 (DU-145 (prostate) [6]) of 20500 nM and a GI50 (NCI-H460 (lung) [7]) of 20900 nM.
With `COc1cc2c(c(OC)c1O)CCCC=C2c1cc(OC)c(OC)c(OC)c1` [Compound 16, 1,3-Dimethoxy-5-(3′,4′,5′-trimethoxyphenyl)-6,7,8,9-tetrahydro-5H-cyclobenzohepta-6-ene-2-ol] the GI50 (SK-OV-3 (ovarian) [5]) was 7130 nM, the GI50 (DU-145 (prostate) [6]) was 15700 nM and the GI50 (NCI-H460 (lung) [7]) was 18000 nM.
In the case of `COc1ccc2c(c1O)CCCC=C2c1cc(OC)c(OC)c(OC)c1` [Compound 23, 2-Methoxy-5-(3′,4′,5′-trimethoxyphenyl)-6,7,8,9-tetrahydro-5H-cyclobenzohepta-6-ene-1-ol], the GI50 (DU-145 (prostate) [1]) is listed as 0.00242 nM, the “Cytotoxicity against human cancer cell lines (in words)” value (human cancer cell lines [8]) is listed as “picomolar cytotoxicity” and the GI50 (NCI-H460 (lung) [2]) is listed as 0.00192 nM. The IC50 (Bovine brain tubulin) was 1700 nM, the “Inhibition” value (Bovine brain tubulin) was “potent inhibitors of tubulin assembly” and the GI50 (SK-OV-3 (ovarian) [3]; [9]) was 0.0242 nM.
`COc1cc(C2=CCCCc3c2ccc(OC)c3OP(=O)(O)O)cc(OC)c1OC` [Compound 24, Disodium 2-Methoxy-5-(3′,4′,5′-trimethoxyphenyl)-6,7,8,9-tetrahydro-5H-cyclobenzohepta-6-ene-1-phosphate] gave a GI50 (SK-OV-3 (ovarian) [5]) of 5.94 nM, a GI50 (DU-145 (prostate) [6]) of 9.66 nM and a GI50 (NCI-H460 (lung) [7]) of 26.6 nM.
In the case of `COc1cc(C2=CCCCc3c2cc(OC)c(OC)c3O)cc(OC)c1OC` [Compound 36, 1-Hydroxy-2,3-dimethoxy-5-(3′,4′,5′-trimethoxyphenyl)-6,7,8,9-tetrahydro-5H-cyclobenzoheptan-5-ene], the GI50 (SK-OV-3 (ovarian) [5]) is reported as 18100 nM, the GI50 (DU-145 (prostate) [6]) is reported as 16300 nM and the GI50 (NCI-H460 (lung) [7]) is reported as 25900 nM.
Work on `COc1ccc2c(c1F)CCCC=C2c1cc(OC)c(OC)c(OC)c1` [Compound 41, 1-Fluoro-2-methoxy-5-(3′,4′,5′-trimethoxyphenyl)-6,7,8,9-tetrahydro-5H-cyclobenzoheptan-5-ene] yielded a GI50 (SK-OV-3 (ovarian) [5]) of 0.00724 nM, a GI50 (DU-145 (prostate) [6]) of 2.87 nM and a GI50 (NCI-H460 (lung) [7]) of 4 nM.
`COc1ccc2c(c1Cl)CCCC=C2c1cc(OC)c(OC)c(OC)c1` [Compound 46, 1-Chloro-2-methoxy-5-(3′,4′,5′-trimethoxyphenyl)-6,7,8,9-tetrahydro-5H-cyclobenzoheptan-5-ene] showed a GI50 (SK-OV-3 (ovarian) [5]) of 39.9 nM, a GI50 (DU-145 (prostate) [6]) of 108 nM and a GI50 (NCI-H460 (lung) [7]) of 83.2 nM.
Compound `COc1ccc2c(c1)CCCC=C2c1cc(OC)c(OC)c(OC)c1` [Compound 50, 2-Methoxy-5-(3′,4′,5′-trimethoxyphenyl)-6,7,8,9-tetrahydro-5H-cyclobenzoheptan-5-ene] has a GI50 (SK-OV-3 (ovarian) [5]) of 36.6 nM, a GI50 (DU-145 (prostate) [6]) of 26.1 nM and a GI50 (NCI-H460 (lung) [7]) of 51 nM.
With `COc1cc(C2=CCCCc3c2ccc(OC)c3OC)cc(OC)c1OC` [Compound 58, 1,2-Dimethoxy-5-(3′,4′,5′-trimethoxyphenyl)-6,7,8,9-tetrahydro-5H-cyclobenzohepta-6-ene] the GI50 (SK-OV-3 (ovarian) [5]) was 641 nM, the GI50 (DU-145 (prostate) [6]) was 516 nM and the GI50 (NCI-H460 (lung) [7]) was 479 nM.
`COc1cc(C2(O)CCCCc3c2ccc(O)c3O)cc(OC)c1OC` (stereo not shown) [Compound 63, 1,2-Dihydroxy-5-(3′,4′,5′-trimethoxyphenyl)-6,7,8,9-tetrahydro-5H-cyclobenzoheptan-5-ol] showed a GI50 (SK-OV-3 (ovarian) [5]) of 341 nM, a GI50 (DU-145 (prostate) [6]) of 783 nM and a GI50 (NCI-H460 (lung) [7]) of 410 nM.
For `COc1cc(C2=CCCCc3ccccc32)cc(OC)c1OC` [Compound 65, 5-(3′,4′,5′-trimethoxyphenyl)-6,7,8,9-tetrahydro-5H-cyclobenzohepta-5-ene], the GI50 (SK-OV-3 (ovarian) [5]) was 19100 nM, the GI50 (DU-145 (prostate) [6]) was 22000 nM and the GI50 (NCI-H460 (lung) [7]) was 32500 nM.
Work on `COc1cc(C2=CCCCc3c2ccc(OC)c3O)cc(OC)c1O` [Compound 71, 9-(4′-Hydroxy-3′,5′-dimethoxyphenyl)-3-methoxy-6,7-dihydro-5H-benzo[7]annulen-4-ol] yielded a GI50 (DU-145 (prostate) [1]) of 579 nM, a GI50 (NCI-H460 (lung) [2]) of 439 nM and a GI50 (SK-OV-3 (ovarian) [3]; [9]) of 378 nM.
